{"source": "patent US20080292619A1", "about": "“Pharmaceutical Composition Containing Meltrin Antagonist” (MOCHIDA PHARMACEUTICAL CO., LTD., priority 2004, published 2008)", "tested_on": "human preadipocyte", "assay": "Effect of antisense compound on adipocyte proliferation and differentiation (Adipo Red)", "format": "cell-based", "conditions": "300 nM; human preadipocyte", "method": "First, human preadipocyte (Human Preadipocytes-sq POIETICS #PT-5020, Sanko Junyaku Co., Ltd.) was suspended in growth medium (#PT-8200, Sanko Junyaku Co., Ltd.), and after adding the suspension to a 96 well culture plate at 1×10^4 cells/well/100 μL, the cells were cultured overnight at 37° C. in the presence of 5% CO2.\nThe preadipocyte was cultured overnight, and after washing the preadipocyte twice with serum-free DMEM, Opti-MEM was added at 80 μL/well.\nGene transfection reagent Lipofectin was diluted with Opti-MEM to 20 μg/mL, and the dilution was allowed to stand at room temperature for 30 minutes. Next, the antisense oligodeoxynucleotide synthesized as described above was heated at 90° C. for 3 minutes, and after quenching on ice, diluted with Opti-MEM to a concentration 10 times higher than the final concentration. Equal amounts of the Lipofectin in Opti-MEM and the antisense oligodeoxynucleotide in Opti-MEM were mixed, and the mixture was incubated at room temperature for 15 minutes and added to 96 well plate at 20 μL/well. After incubating at 37° C. for 4 hours in the presence of 5% CO2, it was used for examination as described below.\nThe differentiation medium was prepared by using growth medium (#PT-8200, Sanko Junyaku Co., Ltd.) and supplement kit (PGM Single Quots, #PT-9500, Sanko Junyaku Co., Ltd.) according to the instruction of the kit. Next, the culture supernatant containing the Lipofectin was removed from the 96 well plate prepared in the above (2), and the plate was washed twice with serum-free DMEM, and the differentiation medium prepared as described above was added at 100 μL/well. The plate was then incubated at 37° C. for 5 days to 15 days in the presence of 5% CO2.\nAccumulation of the neutral fat in the adipocyte was determined by fluorometry using Adipo Red stain.\nAfter taking the 96 well plate out of the CO2 incubator, the plate was allowed to stand until it reached room temperature. The plate was centrifuged at 300 g (1200 rpm) for 10 minutes at room temperature to remove the medium. Next, after gently washing with PBS (SIGMA) at 200 μL/well, PBS was added to the well at 200 μL/well. Next, Adipo Red Assay Reagent (Adipo Red, Cat. #PT-7009, Lot.3F0497, A Cambrex Company) was added at 5 μL/well, and the plate was allowed to stand at room temperature for at least 10 minutes to thereby stain the neutral fat accumulated in the adipocyte. The fat accumulation was determined by measuring fluorescence intensity in a fluorometer at an excitation wavelength of 485 nm and an emission wavelength of 535 nm.\nThe suppression rate of the adipocyte differentiation was calculated by converting the fluorescence intensity of the well transfected with the antisense compound in relation to the fluorescence intensity of the well without transfection with the antisense compound which was assumed as 100%. The result was rated “+” when the suppression rate was at least 25%, “++” when the suppression rate was at least 50%, and “+++” when the suppression rate was at least 75%.", "note": "In the oligonucleotide strings, read from the 5' end, every base follows the letter of its sugar. An asterisk marks phosphorothioate; unmarked linkages are phosphodiester. Other units and linkages are bracketed, terminal groups are in braces. A string of capitals states the bases alone. d = 2'-deoxy (DNA)", "data": [{"substance": "2 (dC*dT*dG*dG*dT*dT*dA*dA*dT*dG*dG*dT*dT*dC*dA*dC*dA*dT*dC*dT) [compound 2]", "values": [{"measurement": "Supression of adipose differentiation 300 nM", "value": "++ (“++” when the suppression rate was at least 50%)"}]}]}
